Experiments:
[1] = system: Enterovirus A71; experiment: Antiviral activity against EV-A71 infected in RD cells assessed as protection against virus induced cytopatheic effect measured after 5 days by MTS assay; type: functional, organism-based; conditions: Enterovirus A, 120 h
[2] = system: Enterovirus A71; experiment: Antiviral activity against Enterovirus A71 BrCr harboring VP1_P246S mutant infected in RD cells assessed as protection against virus induced cytopatheic effect measured after 5 days by MTS assay; type: functional, organism-based
[3] = system: Human immunodeficiency virus 2; experiment: Antiviral activity against HIV2 ROD infected in human MT4 cells assessed as protection against virus induced cytopatheic effect measured after 5 days by MTS assay; type: functional, organism-based; conditions: Human immunodeficiency virus 2, ROD, MT4, 120 h
[4] = system: Enterovirus A71; experiment: Antiviral activity against Enterovirus A71 BrCr harboring VP1_S184T_P246S mutant infected in RD cells assessed as protection against virus induced cytopatheic effect measured after 5 days by MTS assay; type: functional, organism-based
[5] = system: Enterovirus A71; experiment: Antiviral activity against Enterovirus A71 BrCr harboring VP1_S184T mutant infected in RD cells assessed as protection against virus induced cytopatheic effect measured after 5 days by MTS assay; type: functional, organism-based
[6] = Selectivity index, ratio of CC50 for human RD cells to EC50 for antiviral activity against EV-A71; type: toxicity; conditions: read-out: Ratio CC50/EC50
[7] = Cytotoxicity against human RD cells assessed as cell viability measured after 5 days by MTS assay; type: toxicity, cell-based; conditions: time 5 day
[8] = system: Human immunodeficiency virus 1; experiment: Antiviral activity against HIV1 NL4-3 infected in human MT4 cells assessed as protection against virus induced cytopatheic effect measured after 5 days by MTS assay; type: functional, organism-based; conditions: Human immunodeficiency virus 1, NL4-3, MT4, 120 h
[9] = Cytotoxicity against human MT4 cells assessed as cell viability measured after 5 days by MTS assay; type: toxicity, cell-based; conditions: time 5 day
[10] = Selectivity index, ratio of CC50 for human MT4 cells to EC50 for antiviral activity against HIV-1 NL4.3; type: toxicity; conditions: read-out: Ratio CC50/EC50
[11] = system: Enterovirus A71; experiment: Antiviral activity against EV-A71 genotype A BrCr infected in RD cells assessed as protection against virus induced cytopatheic effect measured after 5 days by MTS assay; type: functional, organism-based; conditions: 120 h

| Structure (SMILES) | EC50 [1] [µM] | EC50 [2] [µM] | EC50 [3] [µM] | EC50 [4] [µM] | EC50 [5] [µM] | selectivity ratio [6] | CC50 at 120 h [7] [µM] | EC50 [8] [µM] | CC50 at 120 h [9] [µM] | selectivity ratio [10] | EC50 [11] [µM] |
| --- | --- | --- | --- | --- | --- | --- | --- | --- | --- | --- | --- |
| O=C(CCC(CCC(=O)NC(Cc1c(-c2cc(C(=O)O)cc(C(=O)O)c2)[nH]c2ccccc12)C(=O)O)(CCC(=O)NC(Cc1c(-c2cc(C(=O)O)cc(C(=O)O)c2)[nH]c2ccccc12)C(=O)O)[N+](=O)[O-])NC(Cc1c(-c2cc(C(=O)O)cc(C(=O)O)c2)[nH]c2ccccc12)C(=O)O (stereo not given) | 0.35 | 1.9 | 0.63 | 2.2 | 2.3 | > 103 | > 75 | 0.27 | > 100 | > 370 | 0.353 |
| NC(CCC(=O)NC(Cc1c(-c2cc(C(=O)O)cc(C(=O)O)c2)[nH]c2ccccc12)C(=O)O)(CCC(=O)NC(Cc1c(-c2cc(C(=O)O)cc(C(=O)O)c2)[nH]c2ccccc12)C(=O)O)CCC(=O)NC(Cc1c(-c2cc(C(=O)O)cc(C(=O)O)c2)[nH]c2ccccc12)C(=O)O (stereo not given) | 0.75 | – | 0.1 | – | – | > 133 | > 100 | 0.46 | > 50 | > 109 | – |
| O=C(CCC(CCC(=O)NC(Cc1c(-c2cc(C(=O)O)cc(C(=O)O)c2)[nH]c2ccccc12)C(=O)O)(CCC(=O)NC(Cc1c(-c2cc(C(=O)O)cc(C(=O)O)c2)[nH]c2ccccc12)C(=O)O)NC(=O)Nc1ccc2c(c1)Cc1ccccc1-2)NC(Cc1c(-c2cc(C(=O)O)cc(C(=O)O)c2)[nH]c2ccccc12)C(=O)O (stereo not given) | 0.25 | – | 0.05 | – | – | > 400 | > 100 | 0.06 | > 100 | > 1670 | – |
| O=C(CCC(CCC(=O)NC(Cc1c(-c2cc(C(=O)O)cc(C(=O)O)c2)[nH]c2ccccc12)C(=O)O)(CCC(=O)NC(Cc1c(-c2cc(C(=O)O)cc(C(=O)O)c2)[nH]c2ccccc12)C(=O)O)NC(=O)Nc1ccc2ccccc2c1)NC(Cc1c(-c2cc(C(=O)O)cc(C(=O)O)c2)[nH]c2ccccc12)C(=O)O (stereo not given) | 0.97 | – | 0.22 | – | – | > 70 | > 68 | 0.38 | > 100 | > 263 | – |
| O=C(CCC(CCC(=O)NC(Cc1c(-c2cc(C(=O)O)cc(C(=O)O)c2)[nH]c2ccccc12)C(=O)O)(CCC(=O)NC(Cc1c(-c2cc(C(=O)O)cc(C(=O)O)c2)[nH]c2ccccc12)C(=O)O)NC(=O)CCCCNC(=O)Nc1cc(C(=O)O)cc(C(=O)O)c1)NC(Cc1c(-c2cc(C(=O)O)cc(C(=O)O)c2)[nH]c2ccccc12)C(=O)O (stereo not given) | 0.15 | – | 0.04 | – | – | > 2000 | > 300 | 0.2 | > 100 | > 500 | – |
| O=C(CCC(CCC(=O)N[C@@H](Cc1c[nH]c2ccccc12)C(=O)O)(CCC(=O)N[C@@H](Cc1c[nH]c2ccccc12)C(=O)O)NC(=O)CCOCC(COCCC(=O)NC(CCC(=O)N[C@@H](Cc1c[nH]c2ccccc12)C(=O)O)(CCC(=O)N[C@@H](Cc1c[nH]c2ccccc12)C(=O)O)CCC(=O)N[C@@H](Cc1c[nH]c2ccccc12)C(=O)O)(COCCC(=O)NC(CCC(=O)N[C@@H](Cc1c[nH]c2ccccc12)C(=O)O)(CCC(=O)N[C@@H](Cc1c[nH]c2ccccc12)C(=O)O)CCC(=O)N[C@@H](Cc1c[nH]c2ccccc12)C(=O)O)COCCC(=O)NC(CCC(=O)N[C@@H](Cc1c[nH]c2ccccc12)C(=O)O)(CCC(=O)N[C@@H](Cc1c[nH]c2ccccc12)C(=O)O)CCC(=O)N[C@@H](Cc1c[nH]c2ccccc12)C(=O)O)N[C@@H](Cc1cc2ccccc2[nH]1)C(=O)O | 0.3 | 4.7 | 6.6 | 8.9 | 2 | > 203 | 25 | 2.3 | > 100 | > 43 | – |
| O=C(CCC(CCC(=O)NC(Cc1c(-c2cc(C(=O)O)cc(C(=O)O)c2)[nH]c2ccccc12)C(=O)O)(CCC(=O)NC(Cc1c(-c2cc(C(=O)O)cc(C(=O)O)c2)[nH]c2ccccc12)C(=O)O)NC(=O)CCCCCCNC(=O)c1cc(O)c2c(c1)C(=O)c1cccc(O)c1C2=O)NC(Cc1c(-c2cc(C(=O)O)cc(C(=O)O)c2)[nH]c2ccccc12)C(=O)O (stereo not given) | 1.43 | – | 0.71 | – | – | > 69 | > 100 | 3.11 | > 100 | > 32 | – |
| O=C(CCC(CCC(=O)NC(Cc1c(-c2cc(C(=O)O)cc(C(=O)O)c2)[nH]c2ccccc12)C(=O)O)(CCC(=O)NC(Cc1c(-c2cc(C(=O)O)cc(C(=O)O)c2)[nH]c2ccccc12)C(=O)O)NC(=O)Nc1cccc(C(=O)O)c1)NC(Cc1c(-c2cc(C(=O)O)cc(C(=O)O)c2)[nH]c2ccccc12)C(=O)O (stereo not given) | 0.48 | – | 0.11 | – | – | > 142 | > 68 | 0.71 | > 100 | > 141 | – |
| O=C(CCC(CCC(=O)NC(Cc1c(-c2cc(C(=O)O)cc(C(=O)O)c2)[nH]c2ccccc12)C(=O)O)(CCC(=O)NC(Cc1c(-c2cc(C(=O)O)cc(C(=O)O)c2)[nH]c2ccccc12)C(=O)O)NC(=O)CCCCCCCCCCNC(=O)Nc1cc(C(=O)O)cc(C(=O)O)c1)NC(Cc1c(-c2cc(C(=O)O)cc(C(=O)O)c2)[nH]c2ccccc12)C(=O)O (stereo not given) | 1.38 | – | 0.96 | – | – | > 72 | > 100 | 3.99 | > 100 | > 25 | – |
| O=C(CCC(CCC(=O)NC(Cc1c(-c2cc(C(=O)O)cc(C(=O)O)c2)[nH]c2ccccc12)C(=O)O)(CCC(=O)NC(Cc1c(-c2cc(C(=O)O)cc(C(=O)O)c2)[nH]c2ccccc12)C(=O)O)NC(=O)COCCOCCNc1ccc([N+](=O)[O-])cc1[N+](=O)[O-])NC(=O)Cc1c(-c2cc(C(=O)O)cc(C(=O)O)c2)[nH]c2ccccc12 (stereo not given) | 0.97 | – | 0.56 | – | – | > 103 | > 100 | 8.39 | > 100 | > 12 | – |
| O=C(CCC(CCC(=O)NC(Cc1c(-c2cc(C(=O)O)cc(C(=O)O)c2)[nH]c2ccccc12)C(=O)O)(CCC(=O)NC(Cc1c(-c2cc(C(=O)O)cc(C(=O)O)c2)[nH]c2ccccc12)C(=O)O)NC(=O)CCCCNc1ccc([N+](=O)[O-])cc1[N+](=O)[O-])NC(Cc1c(-c2cc(C(=O)O)cc(C(=O)O)c2)[nH]c2ccccc12)C(=O)O (stereo not given) | 1.07 | – | 0.13 | – | – | > 93 | > 100 | 3.61 | > 100 | > 28 | – |
| O=C(CCC(CCC(=O)NC(Cc1c(-c2cc(C(=O)O)cc(C(=O)O)c2)[nH]c2ccccc12)C(=O)O)(CCC(=O)NC(Cc1c(-c2cc(C(=O)O)cc(C(=O)O)c2)[nH]c2ccccc12)C(=O)O)NC(=O)Nc1cc(C(=O)O)cc(C(=O)O)c1)NC(Cc1c(-c2cc(C(=O)O)cc(C(=O)O)c2)[nH]c2ccccc12)C(=O)O (stereo not given) | 0.4 | – | 0.09 | – | – | > 150 | > 60 | 0.29 | > 100 | > 345 | – |
| CCOC(=O)c1ccc(OCCC2CCN(c3ccc(C)nn3)CC2)cc1 [PIRODAVIR] | – | – | – | – | – | > 333 | > 100 | – | – | – | – |
| CN[C@@H]1[C@H](O[C@@H]2OC[C@@H](O)[C@H](O)[C@H]2O)[C@@H](O)[C@H](O[C@H]2c3cc(C)c(C(=O)N[C@H](C)C(=O)O)c(O)c3-c3c(cc4c(c3O)C(=O)c3cc(OC)cc(O)c3C4=O)[C@@H]2O)O[C@@H]1C [PRADIMICIN A] | – | – | – | – | – | – | – | – | > 100 | > 30 | – |

— ChEMBL document CHEMBL5137021, “Organotropic dendrons with high potency as HIV-1, HIV-2 and EV-A71 cell entry inhibitors” (Eur J Med Chem, 2022)
